Laboratory results from patent publication US10548906B2, “Methods of promoting hepatic regeneration” (Intercept Pharmaceuticals, Inc., priority 2015, dated 2020).
Entries after “also recorded” stand apart in the source; their conditions may differ.

What was measured:
[1] = tested on: FXR; test: FXR target gene expression in terminal ileum and liver by RT-qPCR (Example 5); format: in vivo, rabbit
Protocol: Total RNA was isolated from terminal ileum and (non)embolized liver lobes using Tri Reagent (Ambion). Following treatment with DNAseI (Promega, Leiden, the Netherlands), 750 ng total RNA was converted to cDNA using the iSCRIPT cDNA synthesis kit (BioRad, Veenendaal, the Netherlands). Quantitative RT-PCR (real-time polymerase chain reaction) was performed on an IQ5 Cycler using SYBR Green chemistry (SYBR Green MasterMix, BioRad) and cDNA equivalent to 7.5 ng total RNA as template. Expression levels were calculated using LinReg software (Ramakers C, et al. Neurosci Lett 2003; 339(1):62-6) and normalized to the geometric mean of Rplp0, Hprt and Gapdh. Predicted product size was checked by agarose gel electrophoresis. PCR analysis was performed using tissue obtained at day 3 and 7 for n=6 per treatment group.

[2] = tested on: Wistar rats; test: Bile volume and HPLC bile acid analysis in rBDL rats prior to PHx (Example 6); format: in vivo, rat
Protocol: At baseline (i.e., directly before PHx) and one to five days after PHx, animals were euthanized under isoflurane anesthesia by exsanguination. Blood samples were collected from the caval vein in heparin-anticoagulated vacutainers (BD, Franklin Lakes, N.J.) and centrifuged for 10 min (3000×g, 4° C.). In rBDL animals sacrificed at baseline, bile was aspirated with a syringe from the dilated extrahepatic bile duct, weighed, and stored at −80° C. The liver and ileum were excised, weighed, loafed, and either fixed in a 10% (vol/vol) neutralized formalin solution (J. T. Baker, Center Valley, Pa.), snap-frozen in liquid nitrogen and stored at −80° C., or collected in RNAlater (Qiagen, Venlo, the Netherlands) and stored at −20° C. Liver regrowth was calculated from the regenerated liver mass, and was expressed as percentage of total liver mass prior to PHx. The projected remnant liver mass was calculated using the weight of the resected liver segments, which represent 70% of the total liver mass. Dry liver weights were measured to correct for hepatic water content [Kloek 2010a].
Bile acids were separated and quantified by reverse-phase high-performance liquid chromatography (HPLC) [Lionarons 2016]. Bile or plasma samples (20 μL) were deproteinated by the addition of 5 volumes of acetonitrile. Following centrifugation (10 min at 20,000×g), solvent was evaporated from supernatants and bile salts were solubilized in 200 μL of 25% methanol. For liver homogenates, 100 mg liver tissue was sonicated for 30-90 s in 500 μL of water. One mL of acetonitrile was added for protein precipitation. Samples were subsequently centrifuged at 20,000×g for 10 min, after which the supernatant was used for analysis. Results were corrected for homogenate protein content. One hundred μL of sample was applied to a Hypersil C18 HPLC column (Thermo Scientific, Waltham, Mass.) operated at 20° C. […] Detection was done using a Nano Quantity Analyte Detector QT-500 (Quant Technologies, Blaine, Minn.). Bile acids were quantified using a separate calibration curve per species. […]

[3] = tested on: mice; details: 2 years, 25 mg/kg; cited from earlier work
[4] = tested on: New Zealand White rabbits; test: PVE-induced liver growth in rabbits, CT volumetry and body weight (Example 5)
Protocol: PVE of the cranial liver lobes was performed using polyvinyl alcohol particles and coils at day 0. Caudal liver volume (CLV) was analyzed by CT volumetry at days −7, −1, +3 and +7. Liver function (i.e. mebrofenin uptake) was quantified in subgroups of animals using hepatobiliary scintigraphy. Additional parameters analyzed were plasma transaminase levels, histological scoring of H&E- and Ki67-stained liver sections, and FXR target gene expression.
Six groups of six rabbits were planned for PVE. […] Treatment was started 7 days before PVE, and continued until sacrifice at 3 or 7 days after PVE.
Under digital subtraction portography a Renegade 3F microcatheter (Boston Scientific, Natick, Mass.) with a Transend-ex 0.36 mm×182-cm guide wire (Boston Scientific) was positioned in the main portal branch to the cranial liver lobes. Polyvinyl alcohol particles (90-180 μm and 300-500 μm in diameter, Cook, Bloomington, Ind.) and 2 fibered platinum coils (4.0 and 6.0 mm; Boston Scientific) were infused through the catheter to occlude the portal branches to the cranial lobes. PVE was confirmed by portography, and the mesenteric vein was closed using a ligature. The abdomen was closed in two layers. Baytril was administered daily for 3 days following PVE.
Multiphase CT-scans (Brilliance 64, Philips, Eindhoven, The Netherlands) were performed at day −7, −1, +3, and +7. Animals (n=18 per treatment group) were anesthetized and a 22G catheter was placed in the lateral ear vein. A baseline scan was made and 3 mL of contrast solution (Visipaque, GE Healthcara, Waukesha, Wis.) was injected. Arterial, portal and venous phase scans were made after 15, 30, 45 seconds respectively. Volumetric analysis was performed on 3D reconstruction of 5-mm axial slices using manual delineation. Caudal liver volume (CLV) and total liver volume (TLV) were determined and increase in CLV was determined using the following formula:
The same formula was used to calculate the decrease in cranial liver volume (CrLV; CrLV=TLV−CLV). Increase in CLV and decrease in CrLV was calculated using day −1 values as baseline. […] Regeneration rate was calculated using the formula:

[5] = tested on: Fxr; test: qRT-PCR of proliferation-, Fxr- and bile acid homeostasis-related genes in liver and ileum of rBDL rats (Example 6); format: in vivo, rat
Protocol: Transcriptional analysis was performed [Olthof 2015]. Liver samples were homogenized with a MagNA Lyser and total RNA was extracted with the High Pure RNA Tissue Kit (both from Roche Applied Sciences, Penzberg, Germany). One μg of RNA was reverse transcribed to cDNA using the SensiFAST cDNA Synthesis Kit (Bioline, London, UK) according to manufacturer's instructions. Quantitative reverse transcriptase polymerase chain reaction was performed on a LightCycler 480 (Roche, Basel, Switzerland) using SensiFAST SYBR No-ROX mix (Bioline). Fluorescence data was processed and analyzed and normalized to hypoxanthine-guanine phosphoribosyltransferase (Hprt) for ileum samples, and the geometric mean of ubiquitin C (Ubc) and beta-2-microglobulin (B2m) for liver samples. […] Primers were designed using NCBI Primer Blast (http://www.ncbi.nlm.nih.gov/tools/primer-blast/) to span an intron or exon-exon junction and prevent amplification of residual genomic DNA (Table 2). Melting curve analysis and agarose gel electrophoresis were used to validate primer specificity.

[6] = after seven days of OCA treatment
[7] = prior to PHx, vs untreated rBDL

For `CC[C@H]1[C@@H](O)[C@@H]2[C@H](CC[C@]3(C)[C@@H]([C@H](C)CCC(=O)O)CC[C@@H]23)[C@@]2(C)CC[C@@H](O)C[C@@H]12` [Compound 1, 3α,7α-dihydroxy-6α-ethyl-5β-cholanic acid], which “hepatic βKlotho transcript level” value ([1]; after three days) is on record?
The value was “minor downregulation”.

And the “hepatic Shp expression” value ([1]; caudal liver)?
The value was “without transcriptional induction”.

What about the “hepatic expression of Fgfr4” value ([1]; caudal liver) of the same compound?
Its value is “not affected”.

What about the “hepatic expression of Cyp7a1” value ([1]; caudal liver, day +3) of the same compound?
The value was “strongly suppressed”.

What about the “Ostβ expression in the liver” value ([1]; day +3) of the same compound?
Its value is “elevated”.

What about the “ileal Shp expression” value ([1]; day +3) of the same compound?
The value was “induction”.

And the “hepatic Fxr expression” value ([1]; day +7)?
The value was “reduced”.

What about the “FXR activation (aggregated gene expression analysis)” value ([1]; ileum and liver, listed as OCA) of the same compound?
The value was “activation of both ileal and hepatic FXR”.

And the “ileal expression of Fxr” value ([1]; terminal ileum)?
Its value is “no effect”.

What about the “ileal expression of Ostβ” value ([1]; terminal ileum) of the same compound?
The value was “not affected”.

What about the “bile retrieved from the extrahepatic bile duct” value [2, 6] of the same compound?
The value was “substantial increase”.

What about the “biliary BA output” value [2, 6] of the same compound?
The value was “elevated”.

What about the “hepatic BA load / content” value ([2]; prior to PHx, rBDL, listed as OCA) of the same compound?
The value was “reduction; also recorded: effectively counteracted”.

What about the malignant transformation [3] of the same compound?
The malignant transformation was “does not lead to malignant transformation”.

What about the “increase of CLV relative to vehicle controls” value ([4]; 3 days after PVE) of the same compound?
Its value is 2.2 fold.

What about the “increase in caudal liver volume (CLV)” value ([4]; 3 days after PVE, relative to day −1, N=17) of the same compound?
Its value is 56.1±20.3%.

And the “increase of CLV relative to vehicle controls” value ([4]; day 7 after PVE)?
Its value is 1.5 fold.

And the “increase in caudal liver volume (CLV)” value ([4]; day 7 after PVE, relative to day −1, N=11)?
Its value is 102.0±38.2%.

What about the “total liver volume (TLV) corrected for body weight” value ([4]; pre-treatment period day −7 until day −1, 10 mg/kg daily oral) of the same compound?
Its value is “did not induce spontaneous liver growth”.

What about the “body weight decrease after PVE” value ([4]; vs vehicle) of the same compound?
The value was “to a similar extent”.

And the “hepatic Bsep expression, upregulation” value ([5]; baseline)?
The value was roughly 8 fold.

And the “hepatic Mrp4 expression” value ([5]; baseline)?
The value was “upregulated”.

And the “hepatic Ntcp expression” value ([5]; baseline)?
The value was “mildly upregulated”.

And the “hepatic Ostβ expression” value ([5]; baseline)?
The value was “upregulated”.

And the “hepatocyte Cyp7a1 mRNA level” value ([5]; baseline)?
Its value is “did not alter”.

What about the “hepatocyte Shp mRNA level” value ([5]; baseline) of the same compound?
The value was “did not alter”.

What about the “hepatic Mrp3 expression” value ([5]; baseline, vs untreated rBDL) of the same compound?
Its value is “more robust induction”.

And the “liver Fxr mRNA” value ([5]; day 1 post-PHx)?
Its value is “slight decrease”.

What about the “hepatic Foxm1 expression” value ([5]; during liver regeneration after PHx) of the same compound?
The value was “did not change”.

And the “hepatic Shp transcript levels relative to untreated rBDL and control rats” value ([5]; first two days after PHx)?
The value was “high transcript levels”.

And the “hepatic Fgfr4 transcript level” value ([5]; prior to / on the day of PHx, listed as OCA)?
The value was “markedly downregulated”.

What about the “hepatic Stat3 expression” value ([5]; prior to PHx) of the same compound?
The value was “considerably upregulated”.

And the “ileal Fxr expression” value ([5]; prior to PHx)?
The value was “minor downregulation”.

What about the “ileal Shp expression” value ([5]; prior to PHx) of the same compound?
Its value is “marked upregulation”.

What about the “ileal Fgf15 transcription, upregulation” value ([5]; prior to PHx, rBDL rats) of the same compound?
Its value is roughly 20 fold.

And the “hepatic expression of Foxm1” value [5, 7]?
The value was “comparable”.

And the “hepatic expression of Fxr” value [5, 7]?
Its value is “comparable”.

What about the “hepatic expression of Ccnd1 (CyclinD1)” value ([5]; prior to PHx, vs untreated rBDL or non-cholestatic animals) of the same compound?
The value was “more pronounced”.

What about the “hepatic Fgfr4 expression” value ([5]; regrowth phase after PHx) of the same compound?
The value was “remained low”.
